Source: patent publication US20090215029A1, “METHODS OF ISOLATING AND PURIFYING NUCLEIC ACID-BINDING BIOMOLECULES AND COMPOSITIONS INCLUDING SAME” (CytoCure, Inc., priority 2007, published 2009)
Like-named read-outs stand apart in the source and are kept apart here.

Tests used:
[1] = system: nucleic acids to a bound factor; experiment: Cross-linking / fixative activity: effectiveness in covalently linking nucleic acids to a bound factor; format: biochemical
Method: Several cross-linking fixatives incorporating a nucleic acid binding group covalently coupled with a primary amine-binding group were synthesized. These agents were assayed to determine effectiveness covalently linking nucleic acids to a bound factor.

[2] = system: whole cells; experiment: Combination crosslinking, first and second agents added to whole cells; format: cell-based; conditions: combination with second agent EGS (amine binding); both added more or less simultaneously to whole cells, not less than 30 minutes, room temperature to 37 Celsius
Method: Note: For Combination crosslinking experiments, both the First and Second agents are added more or less simultaneously to whole cells (ethidium bromide requires prior membrane permeabilization) for not less than 30 minutes at room temperature to 37 Celsius.

O=CC=O [glyoxal]
Activity as fixative agent [1]: some activity

N.N.[Cl][Pt][Cl] [Cisplatin]
Activity [2]: Strong

2,5-dioxopyrrolidin-1-yl-2-(4-(3-methylthioureido)-4-oxobutanoyloxy)ethyl succinate chloro(ethylenediamine)platinum(II) complex
Activity [1]: Some

O=C(CCC(=O)OCCOC(=O)CCC(=O)ON1C(=O)CCC1=O)NC(Cc1ccc(N(CCCl)CCCl)cc1)C(=O)O (stereo not drawn) [A, 3-(4-(bis(2-chloroethyl)amino)phenyl)-2-(4-(2-(4-(2,5-dioxopyrrolidin-1-yloxy)-4-oxobutanoyloxy)ethoxy)-4-oxobutanamido)propanoic acid]
Activity [1]: Strong

CC[n+]1c(-c2ccccc2)c2cc(N=[N+]=[N-])ccc2c2ccc(NC(=O)CCC(=O)OCCOC(=O)CCC(=O)ON3C(=O)CCC3=O)cc21.[Br-] [B, 8-azido-3-(4-(2-(4-(2,5-dioxopyrrolidin-1-yloxy)-4-oxobutanoyloxy)ethoxy)-4-oxobutanamido)-5-ethyl-6-phenylphenanthridinium bromide]
Activity ([1]; synthesized compounds: DNA-binding moiety coupled with NHS ester protein-binding moiety): Strong

O=CCCCC=O [glutaraldehyde]
Activity as fixative agent ([1]; additional fixative agents): some activity

C1OC1C1CO1 (stereo not drawn) [1,3 butadiene diepoxide]
Activity as fixative agent [1]: some activity

CC[n+]1c(-c2ccccc2)c2cc(N=[N+]=[N-])ccc2c2ccc(N)cc21.[Br-] [Ethidium bromide monoazide, 3-Amino-8-azido-5-ethyl-6-phenylphenanthridinium bromide]
Activity [2]: Strong

Cc1oc2c(C)c3oc(=O)cc(C)c3cc2c1CN [4-aminomethyl trioxsalen]
Activity [2]: Weak
